US10308639B2, “Phosphatidylinositol 3-kinase inhibitors” (Gilead Sciences, Inc., priority 2014, dated 2019)

How the values were obtained:
Format in all cases: biochemical
[1] = target: T1, PI3Kβ (Homo sapiens, UniProt P42338); test: TR-FRET enzymatic activity assay, PI3Kβ; settings: Table 2a; same assay
T1 construct: made in house

[2] = target: T2, PI3Kδ (Homo sapiens, UniProt O00329); test: TR-FRET enzymatic activity assay, PI3Kδ; settings: Table 2a; same assay
T2 construct: made in house

[3] = target: T3, PI3Kγ (Homo sapiens, UniProt P48736); test: TR-FRET enzymatic activity assay, PI3Kγ; settings: Table 2a; same assay; read-out: PI3Kγ IC50
T3 construct: made in house
In short: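 Compounds were profiled per isoform in a biochemical kinase reaction, with activity detected by time-resolved fluorescence resonance energy transfer.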

T2 sequence (O00329 whole entry): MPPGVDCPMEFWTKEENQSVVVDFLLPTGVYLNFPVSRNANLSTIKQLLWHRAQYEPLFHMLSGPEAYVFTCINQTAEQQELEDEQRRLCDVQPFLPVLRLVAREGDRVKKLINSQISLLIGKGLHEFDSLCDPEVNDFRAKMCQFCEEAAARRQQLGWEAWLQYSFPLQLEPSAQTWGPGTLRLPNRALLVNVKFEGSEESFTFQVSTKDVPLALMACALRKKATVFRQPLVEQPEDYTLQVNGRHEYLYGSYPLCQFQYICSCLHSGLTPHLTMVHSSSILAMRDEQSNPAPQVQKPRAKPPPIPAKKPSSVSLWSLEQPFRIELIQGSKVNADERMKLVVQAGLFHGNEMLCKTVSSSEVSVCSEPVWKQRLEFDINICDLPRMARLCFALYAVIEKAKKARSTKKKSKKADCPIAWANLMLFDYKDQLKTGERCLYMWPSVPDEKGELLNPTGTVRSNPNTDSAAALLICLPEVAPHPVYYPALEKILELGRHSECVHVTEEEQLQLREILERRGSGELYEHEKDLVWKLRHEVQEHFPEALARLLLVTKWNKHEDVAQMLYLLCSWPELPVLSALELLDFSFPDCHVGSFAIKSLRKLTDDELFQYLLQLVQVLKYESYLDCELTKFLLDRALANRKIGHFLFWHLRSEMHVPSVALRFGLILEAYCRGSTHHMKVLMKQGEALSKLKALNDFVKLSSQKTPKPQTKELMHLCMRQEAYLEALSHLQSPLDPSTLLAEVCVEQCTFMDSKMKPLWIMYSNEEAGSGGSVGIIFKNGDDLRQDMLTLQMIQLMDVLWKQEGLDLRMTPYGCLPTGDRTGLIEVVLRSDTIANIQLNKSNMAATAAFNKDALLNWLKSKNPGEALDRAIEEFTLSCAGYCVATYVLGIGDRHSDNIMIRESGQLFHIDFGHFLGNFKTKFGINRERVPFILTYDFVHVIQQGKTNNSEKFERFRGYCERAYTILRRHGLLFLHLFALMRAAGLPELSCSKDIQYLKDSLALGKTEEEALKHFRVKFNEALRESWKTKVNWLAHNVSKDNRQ
T2 sequence (P27986 whole entry partner): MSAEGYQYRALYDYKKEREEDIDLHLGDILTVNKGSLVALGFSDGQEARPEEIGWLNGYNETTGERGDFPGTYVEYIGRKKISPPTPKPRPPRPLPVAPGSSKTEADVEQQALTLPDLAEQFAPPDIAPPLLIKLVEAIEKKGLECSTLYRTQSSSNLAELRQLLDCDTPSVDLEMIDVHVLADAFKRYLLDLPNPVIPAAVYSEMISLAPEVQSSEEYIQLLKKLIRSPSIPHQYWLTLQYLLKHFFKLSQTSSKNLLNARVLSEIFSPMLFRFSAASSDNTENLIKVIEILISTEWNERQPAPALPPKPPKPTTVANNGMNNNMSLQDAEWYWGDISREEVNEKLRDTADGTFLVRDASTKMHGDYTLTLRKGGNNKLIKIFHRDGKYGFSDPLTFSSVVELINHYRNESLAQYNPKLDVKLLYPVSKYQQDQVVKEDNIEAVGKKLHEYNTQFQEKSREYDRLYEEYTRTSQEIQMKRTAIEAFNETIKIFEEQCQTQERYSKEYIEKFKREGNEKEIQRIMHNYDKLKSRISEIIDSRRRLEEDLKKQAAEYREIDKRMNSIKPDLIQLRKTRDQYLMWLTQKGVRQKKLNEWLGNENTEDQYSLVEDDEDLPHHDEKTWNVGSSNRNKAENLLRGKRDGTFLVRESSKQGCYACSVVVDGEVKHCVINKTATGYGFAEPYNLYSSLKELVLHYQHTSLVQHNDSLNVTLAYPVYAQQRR
T3 sequence (P48736 whole entry): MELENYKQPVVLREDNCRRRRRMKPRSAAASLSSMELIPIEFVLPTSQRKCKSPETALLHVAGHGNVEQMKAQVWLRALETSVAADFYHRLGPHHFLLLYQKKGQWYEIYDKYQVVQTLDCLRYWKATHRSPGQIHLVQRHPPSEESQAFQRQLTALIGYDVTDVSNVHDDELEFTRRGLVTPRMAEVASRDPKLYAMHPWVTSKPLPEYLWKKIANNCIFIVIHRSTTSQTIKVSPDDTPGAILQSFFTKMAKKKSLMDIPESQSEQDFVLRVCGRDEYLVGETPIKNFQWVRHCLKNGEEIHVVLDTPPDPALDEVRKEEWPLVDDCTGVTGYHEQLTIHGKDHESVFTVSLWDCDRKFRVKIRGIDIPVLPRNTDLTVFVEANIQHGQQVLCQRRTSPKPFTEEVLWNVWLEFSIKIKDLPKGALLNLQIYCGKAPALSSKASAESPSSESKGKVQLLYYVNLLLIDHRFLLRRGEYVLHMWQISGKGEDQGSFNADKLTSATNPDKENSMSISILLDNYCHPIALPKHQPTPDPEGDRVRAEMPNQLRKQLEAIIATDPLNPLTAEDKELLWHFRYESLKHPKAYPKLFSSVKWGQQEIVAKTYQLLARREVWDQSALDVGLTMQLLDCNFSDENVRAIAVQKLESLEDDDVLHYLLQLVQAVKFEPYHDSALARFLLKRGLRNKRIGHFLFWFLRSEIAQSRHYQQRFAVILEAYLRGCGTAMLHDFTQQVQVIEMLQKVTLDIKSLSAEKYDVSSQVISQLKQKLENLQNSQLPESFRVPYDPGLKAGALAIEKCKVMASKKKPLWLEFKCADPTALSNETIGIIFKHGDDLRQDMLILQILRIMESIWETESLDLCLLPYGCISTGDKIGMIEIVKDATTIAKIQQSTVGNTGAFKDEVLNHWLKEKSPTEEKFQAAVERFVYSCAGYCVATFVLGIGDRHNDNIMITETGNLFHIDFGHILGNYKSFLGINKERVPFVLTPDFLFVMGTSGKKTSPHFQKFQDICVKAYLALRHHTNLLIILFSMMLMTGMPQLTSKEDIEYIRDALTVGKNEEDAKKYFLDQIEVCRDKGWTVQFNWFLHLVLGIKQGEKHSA
T1 sequence (P42338 whole entry): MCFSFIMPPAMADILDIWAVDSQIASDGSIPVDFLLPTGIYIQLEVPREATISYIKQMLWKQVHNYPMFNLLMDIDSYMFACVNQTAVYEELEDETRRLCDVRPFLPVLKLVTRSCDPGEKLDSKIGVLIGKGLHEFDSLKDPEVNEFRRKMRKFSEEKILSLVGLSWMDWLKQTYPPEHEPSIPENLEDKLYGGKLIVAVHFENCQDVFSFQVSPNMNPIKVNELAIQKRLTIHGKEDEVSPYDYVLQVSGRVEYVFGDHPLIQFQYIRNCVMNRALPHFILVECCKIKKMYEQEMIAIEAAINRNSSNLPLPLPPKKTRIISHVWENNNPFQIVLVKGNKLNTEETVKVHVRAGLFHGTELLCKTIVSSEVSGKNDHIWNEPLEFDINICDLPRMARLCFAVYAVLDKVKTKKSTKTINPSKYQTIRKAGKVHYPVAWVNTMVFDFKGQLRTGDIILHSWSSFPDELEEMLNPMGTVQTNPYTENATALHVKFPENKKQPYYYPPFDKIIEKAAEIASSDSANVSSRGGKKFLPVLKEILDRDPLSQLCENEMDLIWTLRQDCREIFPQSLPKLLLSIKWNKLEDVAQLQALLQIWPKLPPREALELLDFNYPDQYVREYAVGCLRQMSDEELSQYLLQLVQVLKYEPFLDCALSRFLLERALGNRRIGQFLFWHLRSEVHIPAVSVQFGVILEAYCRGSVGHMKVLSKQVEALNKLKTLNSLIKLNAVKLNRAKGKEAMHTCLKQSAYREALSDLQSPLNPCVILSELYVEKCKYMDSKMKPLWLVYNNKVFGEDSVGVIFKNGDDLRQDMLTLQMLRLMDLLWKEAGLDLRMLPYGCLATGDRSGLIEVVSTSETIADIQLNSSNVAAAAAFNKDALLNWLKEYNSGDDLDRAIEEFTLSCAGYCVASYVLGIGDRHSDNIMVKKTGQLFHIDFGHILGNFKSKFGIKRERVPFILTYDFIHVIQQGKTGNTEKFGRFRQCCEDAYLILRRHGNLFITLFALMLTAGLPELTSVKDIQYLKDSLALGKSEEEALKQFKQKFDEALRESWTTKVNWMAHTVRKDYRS
T1 sequence (P27986 whole entry partner): as the sequence (P27986 whole entry partner) above

Row | Compound | IC50 [1] [nM] | IC50 [2] [nM] | IC50 [3] [nM]
1 | CCC[C@H](Nc1nc(N)nc(N)c1Cl)c1nc2ccc(F)c(Cl)c2c(=O)n1-c1cc[nH]n1 [Compound 267, (S)-5-chloro-2-(1-((2,6-diamino-5-chloropyrimidin-4-yl)amino)butyl)-6-fluoro-3-(1H-pyrazol-3-yl)quinazolin-4(3H)-one] | 120 | 27 | > 10000
2 | C[C@H](Nc1nc(N)nc(N)c1Cl)c1nc2c(Cl)cc(F)cc2c(=O)n1-c1n[nH]cc1Br [Compound 270, (S)-3-(4-bromo-1H-pyrazol-3-yl)-8-chloro-2-(1-((2,6-diamino-5-chloropyrimidin-4-yl)amino)ethyl)-6-fluoroquinazolin-4(3H)-one] | 2300 | 26 | > 10000
3 | C[C@H](Nc1nc(N)nc(N)c1Cl)c1nc2c(C#N)cc(F)cc2c(=O)n1-c1cc[nH]n1 [Compound 271, (S)-2-(1-((2,6-diamino-5-chloropyrimidin-4-yl)amino)ethyl)-6-fluoro-4-oxo-3-(1H-pyrazol-3-yl)-3,4-dihydroquinazoline-8-carbonitrile] | 28 | 18 | > 10000
4 | C[C@H](Nc1nc(N)nc(N)c1Cl)c1nc2ccccc2c(=O)n1-c1cc[nH]n1 [Compound 275, (S)-2-(1-((2,6-diamino-5-chloropyrimidin-4-yl)amino)ethyl)-3-(1H-pyrazol-3-yl)quinazolin-4(3H)-one] | 46 | 40 | > 10000
5 | C[C@H](NC(=O)c1nc(Cl)c(N)nc1N)c1nc2cccc(Cl)c2c(=O)n1-c1cc[nH]n1 [Compound 276, (S)-3,5-diamino-6-chloro-N-(1-(5-chloro-4-oxo-3-(1H-pyrazol-3-yl)-3,4-dihydroquinazolin-2-yl)ethyl)pyrazine-2-carboxamide] | 20 | 36 | 280
6 | C[C@H](NC(=O)c1nc(Cl)c(N)nc1N)c1nc2c(F)ccc(Cl)c2c(=O)n1-c1cc[nH]n1 [Compound 277, (S)-3,5-diamino-6-chloro-N-(1-(5-chloro-8-fluoro-4-oxo-3-(1H-pyrazol-3-yl)-3,4-dihydroquinazolin-2-yl)ethyl)pyrazine-2-carboxamide] | 43 | 50 | 390
7 | C[C@H](NC(=O)c1nc(Cl)c(N)nc1N)c1nc2c(F)ccc(Cl)c2c(=O)n1-c1cn[nH]c1 [Compound 278, (S)-3,5-diamino-6-chloro-N-(1-(5-chloro-8-fluoro-4-oxo-3-(1H-pyrazol-4-yl)-3,4-dihydroquinazolin-2-yl)ethyl)pyrazine-2-carboxamide] | 83 | 53 | 590
8 | Nc1nc(N)c(Cl)c(N[C@H](c2nc3c(Cl)cc(F)cc3c(=O)n2-c2c[nH]cn2)C2CC2)n1 [Compound 280, (S)-8-chloro-2-(cyclopropyl((2,6-diamino-5-chloropyrimidin-4-yl)amino)methyl)-6-fluoro-3-(1H-imidazol-4-yl)quinazolin-4(3H)-one] | 370 | 48 | > 10000
9 | CCC[C@H](Nc1nc(N)nc(N)c1Cl)c1nc2cccc(Cl)c2c(=O)n1-c1c[nH]cn1 [Compound 282, (S)-5-chloro-2-(1-((2,6-diamino-5-chloropyrimidin-4-yl)amino)butyl)-3-(1H-imidazol-4-yl)quinazolin-4(3H)-one] | 120 | 26 | 5700
10 | C[C@H](Nc1nc(N)nc(N)c1Cl)c1nc2c(Cl)cc(F)cc2c(=O)n1-c1c[nH]cn1 [Compound 284, (S)-8-chloro-2-(1-((2,6-diamino-5-chloropyrimidin-4-yl)amino)ethyl)-6-fluoro-3-(1H-imidazol-4-yl)quinazolin-4(3H)-one] | 340 | 20 | > 10000

Stronger by IC50 [1], values ahead:

Row | IC50 [1] [nM] | IC50 [2] [nM] | IC50 [3] [nM] | Compound
11 | 4 | 1 | 84 | C[C@H](Nc1nc(N)nc(N)c1C#N)c1nc2c(Cl)cc(F)cc2c(=O)n1-c1cn[nH]c1 [Compound 266, (S)-2,4-diamino-6-((1-(8-chloro-6-fluoro-4-oxo-3-(1H-pyrazol-4-yl)-3,4-dihydroquinazolin-2-yl)ethyl)amino)pyrimidine-5-carbonitrile]
12 | 5 | 2 | 900 | CCC[C@H](Nc1nc(N)nc(N)c1C#N)c1nc2ccc(F)c(Cl)c2c(=O)n1-c1cc[nH]n1 [Compound 268, (S)-2,4-diamino-6-((1-(5-chloro-6-fluoro-4-oxo-3-(1H-pyrazol-3-yl)-3,4-dihydroquinazolin-2-yl)butyl)amino)pyrimidine-5-carbonitrile]
13 | 0.9 | 1 | 170 | N#Cc1c(N)nc(N)nc1N[C@H](c1nc2c(Cl)cc(F)cc2c(=O)n1-c1cn[nH]c1)C1CC1 [Compound 269, (S)-2,4-diamino-6-(((8-chloro-6-fluoro-4-oxo-3-(1H-pyrazol-4-yl)-3,4-dihydroquinazolin-2-yl)(cyclopropyl)methyl)amino)pyrimidine-5-carbonitrile]
14 | 1 | 0.9 | 2700 | C[C@H](Nc1nc(N)nc(N)c1C#N)c1nc2c(C#N)cc(F)cc2c(=O)n1-c1cc[nH]n1 [Compound 272, (S)-2-(1-((2,6-diamino-5-cyanopyrimidin-4-yl)amino)ethyl)-6-fluoro-4-oxo-3-(1H-pyrazol-3-yl)-3,4-dihydroquinazoline-8-carbonitrile]
15 | 18 | 21 | > 10000 | N#Cc1cc(F)cc2c(=O)n(-c3cc[nH]n3)c([C@@H](Nc3nc(N)nc(N)c3Cl)C3CC3)nc12 [Compound 273, (S)-2-(cyclopropyl((2,6-diamino-5-chloropyrimidin-4-yl)amino)methyl)-6-fluoro-4-oxo-3-(1H-pyrazol-3-yl)-3,4-dihydroquinazoline-8-carbonitrile]
16 | 2 | 3 | 760 | C[C@H](Nc1nc(N)nc(N)c1C#N)c1nc2ccccc2c(=O)n1-c1cc[nH]n1 [Compound 274, (S)-2,4-diamino-6-((1-(4-oxo-3-(1H-pyrazol-3-yl)-3,4-dihydroquinazolin-2-yl)ethyl)amino)pyrimidine-5-carbonitrile]
17 | 1 | 0.2 | 710 | C[C@H](Nc1nc(N)nc(N)c1C#N)c1nc2c(Cl)cc(F)cc2c(=O)n1-c1cc[nH]n1 [Compound 279, (S)-2,4-diamino-6-((1-(8-chloro-6-fluoro-4-oxo-3-(1H-pyrazol-3-yl)-3,4-dihydroquinazolin-2-yl)ethyl)amino)pyrimidine-5-carbonitrile]
18 | 2 | 1 | 620 | N#Cc1c(N)nc(N)nc1N[C@H](c1nc2c(Cl)cc(F)cc2c(=O)n1-c1c[nH]cn1)C1CC1 [Compound 281, (S)-2,4-diamino-6-(((8-chloro-6-fluoro-3-(1H-imidazol-4-yl)-4-oxo-3,4-dihydroquinazolin-2-yl)(cyclopropyl)methyl)amino)pyrimidine-5-carbonitrile]
19 | 3 | 2 | 740 | CCC[C@H](Nc1nc(N)nc(N)c1C#N)c1nc2cccc(Cl)c2c(=O)n1-c1c[nH]cn1 [Compound 283, (S)-2,4-diamino-6-((1-(5-chloro-3-(1H-imidazol-4-yl)-4-oxo-3,4-dihydroquinazolin-2-yl)butyl)amino)pyrimidine-5-carbonitrile]
